Data as given in patent US10604554B2, “Double-acylated GLP-1 derivatives” (Novo Nordisk A/S, priority 2012, dated 2020).
Numbered stars: 1 amine (or outer) side, 2 acyl side, 3 side chain; on linkers, the order of the positions; unused ones are H or OH. Square brackets hold non-standard residues; d marks the D form. Side chains are listed from the residue outwards. Peptide text beside a SMILES is read from it. * marks the point of attachment. Undecanoyl(11-OPh(4-COOH)) = O=C(O)c1ccc(OCCCCCCCCCCC(=O)*)cc1; γGlu = O=C(O)[C@H](CCC(=O)[*:2])N[*:1]; εLys = N[C@@H](CCCCN[*:1])C(=O)[*:2]; Aib = CC(C)(N)C(=O)O

What was measured:
human GLP-1 receptor [1] = target: T1, human GLP-1 receptor (Homo sapiens, UniProt P43220); test: In vitro potency (CRE luciferase; whole cells); assay type: cell-based; design: EC50/pM (ratio 1% HSA/0% HSA): unit not given here; details: for EC50: BHK cells; for EC50/pM (ratio 1% HSA/0% HSA): ratio of EC50 at 1% HSA to EC50 at 0% HSA
T1 construct: expressed in transfected cells; host or cells: BHK cells, clone FCW467-12A/KZ10-1 (parent line BHKTS13), further transfected with CRE luciferase
Method in brief: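 Reporter: CRE-luciferase in BHK cells stably expressing human GLP-1R, 5×10^3 cells/well; compounds tested in buffer containing 0% or 1% HSA.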

human GLP-1 receptor [2] = target: T1, human GLP-1 receptor; test: GLP-1 receptor binding (SPA, displacement of 125I-GLP-1)
Method in brief: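 Tracer [125I]-GLP-1(7-36)NH2 at 0.06 nM final competed on hamster stably transfected cell membranes captured by WGA SPA beads; 120 min, 30 °C, scintillation count.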

[3] = Pharmacokinetic (PK) study in minipig; details: male, Göttingen, in vivo, iv
[4] = test system: Landrace Yorkshire Duroc (LYD) pigs; test: Pharmacodynamic (PD) study in pigs, food intake; assay type: in vivo, pig; details: single s.c. dose 3.0 nmol/kg
Description: The purpose of this experiment was to investigate the effect of a couple of Example compounds on food intake in pigs. This was done in a pharmacodynamic (PD) study as described below, in which food intake was measured from 1 to 4 days after administration of a single dose of the GLP-1 derivative, as compared to a vehicle-treated control group.
Female Landrace Yorkshire Duroc (LYD) pigs, approximately 3 months of age, weighing approximately 30-35 kg were used (n=3-4 per group). The animals were housed in a group for approximately 1 week during acclimatisation to the animal facilities. During the experimental period the animals were placed in individual pens at least 2 days before dosing and during the entire experiment for measurement of individual food intake. The animals were fed ad libitum with pig fodder (Svinefoder Danish Top) at all times both during the acclimatisation and the experimental period. Food intake was monitored on line by logging the weight of fodder every 15 minutes. The system used was Mpigwin (Ellegaard Systems, Faaborg, Denmark).
The phosphate buffer serves as vehicle. Animals are dosed with a single subcutaneous dose of the GLP-1 derivative or vehicle (dose volume 0.025 ml/kg) on the morning of day 1, and food intake is measured for 1 day after dosing. On the last day of each study, 1-4 days after dosing, a blood sample for measurement of plasma exposure of the GLP-1 derivative is taken from the heart in anaesthetised animals. The animals are thereafter euthanised with an intra-cardial overdose of pentobarbitone.
Food intake is calculated as mean±SEM food intake in 24 h intervals (0-24 h, 24-48 h, and 48-72 h). In Table 6 below the food intake is indicated as percentage of the food intake of the vehicle group in the same time interval (dosage 3.0 nmol/kg).
Statistical comparisons of the food intake in the 24 h intervals in the vehicle vs. GLP-1 derivative group are done using two-way-ANOVA repeated measures, followed by Bonferroni post-test.

[5] = Pharmacokinetic (PK) study in rat; details: male, Sprague Dawley, in vivo, iv, 6 nmol/kg
[6] = In vitro potency (CRE luciferase) EC50 (0% HSA), 0% HSA
[7] = In vitro potency (CRE luciferase) EC50 (1% HSA), 1% HSA
[8] = Receptor binding affinity IC50 (high HSA), 2.0% HSA (high albumin)
[9] = Receptor binding affinity IC50 (low HSA), 0.001% HSA (low albumin)

T1 sequence (P43220 24-463): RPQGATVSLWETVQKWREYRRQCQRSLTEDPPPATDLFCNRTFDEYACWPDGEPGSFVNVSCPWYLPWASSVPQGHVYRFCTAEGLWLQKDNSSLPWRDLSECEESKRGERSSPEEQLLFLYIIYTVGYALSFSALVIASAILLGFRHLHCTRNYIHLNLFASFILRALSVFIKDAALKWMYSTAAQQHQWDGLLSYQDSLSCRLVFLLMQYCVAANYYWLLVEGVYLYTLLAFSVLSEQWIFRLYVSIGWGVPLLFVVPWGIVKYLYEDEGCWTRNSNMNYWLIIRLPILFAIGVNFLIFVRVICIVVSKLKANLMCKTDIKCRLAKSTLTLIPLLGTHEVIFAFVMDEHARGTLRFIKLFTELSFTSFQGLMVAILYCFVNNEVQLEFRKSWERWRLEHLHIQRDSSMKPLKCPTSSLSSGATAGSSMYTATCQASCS

**Q.** For `CC[C@H](C)[C@H](NC(=O)[C@H](Cc1ccccc1)NC(=O)[C@H](CCC(=O)O)NC(=O)[C@H](CCCCNC(=O)[C@@H](N)CCCCNC(=O)[C@@H](N)CCCCNC(=O)CC[C@H](NC(=O)CCCCCCCCCCOc1ccc(C(=O)O)cc1)C(=O)O)NC(=O)[C@H](C)NC(=O)[C@H](C)NC(=O)[C@H](CCC(N)=O)NC(=O)[C@H](CCC(=O)O)NC(=O)[C@H](CCC(=O)O)NC(=O)[C@H](CC(C)C)NC(=O)[C@H](Cc1ccc(O)cc1)NC(=O)[C@H](CO)NC(=O)[C@H](CO)NC(=O)[C@@H](NC(=O)[C@H](CC(=O)O)NC(=O)[C@H](CO)NC(=O)[C@@H](NC(=O)[C@H](Cc1ccccc1)NC(=O)[C@@H](NC(=O)CNC(=O)[C@H](CCC(=O)O)NC(=O)C(C)(C)NC(=O)[C@@H](N)Cc1c[nH]cn1)[C@@H](C)O)[C@@H](C)O)C(C)C)C(=O)N[C@@H](C)C(=O)N[C@@H](Cc1c[nH]c2ccccc12)C(=O)N[C@@H](CC(C)C)C(=O)N[C@H](C(=O)N[C@@H](CCC(N)=O)C(=O)NCC(=O)N[C@@H](CCCNC(=N)N)C(=O)N[C@@H](CCCCNC(=O)[C@@H](N)CCCCNC(=O)[C@@H](N)CCCCNC(=O)CC[C@H](NC(=O)CCCCCCCCCCOc1ccc(C(=O)O)cc1)C(=O)O)C(=O)O)C(C)C` [Example 36, N^ε26-[(2S)-2-amino-6-[[(2S)-2-amino-6-[[(4S)-4-carboxy-4-[11-(4-carboxyphenoxy)undecanoylamino]butanoyl]amino]hexanoyl]amino]hexanoyl], N^ε37-[(2S)-2-amino-6-[[(2S)-2-amino-6-[[(4S)-4-carboxy-4-[11-(4-carboxyphenoxy)undecanoylamino]butanoyl]amino]hexanoyl]amino]hexanoyl]-[Aib^8,Glu^22,Gln^34,Lys^37]-GLP-1-(7-37)-peptide] (H-H[Aib]EGTFTSDVSSYLEEQAAK([εLys-εLys-γGlu-Undecanoyl(11-OPh(4-COOH))])EFIAWLVQGRK([εLys-εLys-γGlu-Undecanoyl(11-OPh(4-COOH))])-OH; N-terminus and C-terminus assumed), which EC50 (human GLP-1 receptor [1]; [6]) is on record?
**A.** 0.0049 nM

**Q.** What about the EC50 (human GLP-1 receptor [1]; [7]) of the same molecule?
**A.** 0.065 nM

**Q.** What about the “EC50/pM (ratio 1% HSA/0% HSA)” value (human GLP-1 receptor [1]) of the same molecule?
**A.** 14

**Q.** And the IC50 (human GLP-1 receptor [2]; [8])?
**A.** 25 nM

**Q.** What about the IC50 (human GLP-1 receptor [2]; [9]) of the same molecule?
**A.** 0.1 nM

**Q.** What about the half-life [3] of the same molecule?
**A.** 69 h

**Q.** Which EC50 (human GLP-1 receptor [1]; [7]) does the source give for `CC[C@H](C)[C@H](NC(=O)[C@H](Cc1ccccc1)NC(=O)[C@H](CCC(=O)O)NC(=O)[C@H](CCCCNC(=O)[C@@H](N)CCCCNC(=O)[C@H](CO)NC(=O)CNC(=O)[C@H](CO)NC(=O)CC[C@H](NC(=O)CCCCCCCCCCCOc1ccc(C(=O)O)cc1)C(=O)O)NC(=O)[C@H](C)NC(=O)[C@H](C)NC(=O)[C@H](CCC(N)=O)NC(=O)CNC(=O)[C@H](CCC(=O)O)NC(=O)[C@H](CC(C)C)NC(=O)[C@H](Cc1ccc(O)cc1)NC(=O)[C@H](CO)NC(=O)[C@H](CO)NC(=O)[C@@H](NC(=O)[C@H](CC(=O)O)NC(=O)[C@H](CO)NC(=O)[C@@H](NC(=O)[C@H](Cc1ccccc1)NC(=O)[C@@H](NC(=O)CNC(=O)[C@H](CCC(=O)O)NC(=O)C(C)(C)NC(=O)[C@@H](N)Cc1c[nH]cn1)[C@@H](C)O)[C@@H](C)O)C(C)C)C(=O)N[C@@H](C)C(=O)N[C@@H](Cc1c[nH]c2ccccc12)C(=O)N[C@@H](CC(C)C)C(=O)N[C@H](C(=O)N[C@@H](CCCNC(=N)N)C(=O)NCC(=O)N[C@@H](CCCNC(=N)N)C(=O)N[C@@H](CCCCNC(=O)[C@@H](N)CCCCNC(=O)[C@H](CO)NC(=O)CNC(=O)[C@H](CO)NC(=O)CC[C@H](NC(=O)CCCCCCCCCCCOc1ccc(C(=O)O)cc1)C(=O)O)C(=O)O)C(C)C` [Example 24] here?
**A.** 0.126 nM

**Q.** And the “EC50/pM (ratio 1% HSA/0% HSA)” value (human GLP-1 receptor [1])?
**A.** 37

**Q.** What about the IC50 (human GLP-1 receptor [2]; [8]) of the same molecule?
**A.** 136 nM

**Q.** What about the “PD in pig, food intake (% of vehicle) for hours 0-24” value ([4]; 0-24 h) of the same molecule?
**A.** 73 % of vehicle

**Q.** And the “PD in pig, food intake (% of vehicle) for hours 24-48” value ([4]; 24-48 h)?
**A.** 73 % of vehicle

**Q.** What about the half-life [3] of the same molecule?
**A.** 123 h

**Q.** Which results are given for `CC[C@H](C)[C@H](NC(=O)[C@H](Cc1ccccc1)NC(=O)[C@H](CCC(=O)O)NC(=O)[C@H](CCCCNC(=O)[C@H](CCCCNC(=O)[C@H](CCCCNC(=O)CC[C@H](NC(=O)CCCCCCCCCCOc1ccc(C(=O)O)cc1)C(=O)O)N(C)C)N(C)C)NC(=O)[C@H](C)NC(=O)[C@H](C)NC(=O)[C@H](CCC(N)=O)NC(=O)CNC(=O)[C@H](CCC(=O)O)NC(=O)[C@H](CC(C)C)NC(=O)[C@H](Cc1ccc(O)cc1)NC(=O)[C@H](CO)NC(=O)[C@H](CO)NC(=O)[C@@H](NC(=O)[C@H](CC(=O)O)NC(=O)[C@H](CO)NC(=O)[C@@H](NC(=O)[C@H](Cc1ccccc1)NC(=O)[C@@H](NC(=O)CNC(=O)[C@H](CCC(=O)O)NC(=O)C(C)(C)NC(=O)CCc1c[nH]cn1)[C@@H](C)O)[C@@H](C)O)C(C)C)C(=O)N[C@@H](C)C(=O)N[C@@H](Cc1c[nH]c2ccccc12)C(=O)N[C@@H](CC(C)C)C(=O)N[C@H](C(=O)N[C@@H](CCCNC(=N)N)C(=O)NCC(=O)N[C@@H](CCCNC(=N)N)C(=O)N[C@@H](CCCCNC(=O)[C@H](CCCCNC(=O)[C@H](CCCCNC(=O)CC[C@H](NC(=O)CCCCCCCCCCOc1ccc(C(=O)O)cc1)C(=O)O)N(C)C)N(C)C)C(=O)O)C(C)C` [Example 29, N^ε26-[(2S)-6-[[(2S)-6-[[(4S)-4-carboxy-4-[11-(4-carboxyphenoxy)undecanoylamino]butanoyl]amino]-2-(dimethylamino)hexanoyl]amino]-2-(dimethylamino)hexanoyl], N^ε37-[(2S)-6-[[(2S)-6-[[(4S)-4-carboxy-4-[11-(4-carboxyphenoxy)undecanoylamino]butanoyl]amino]-2-(dimethylamino)hexanoyl]amino]-2-(dimethylamino)hexanoyl]-[Imp^7,Aib^8,Arg^34,Lys^37]-GLP-1-(7-37)-peptide]?
**A.** EC50 (human GLP-1 receptor [1]; [6]): 0.0079 nM; EC50 (human GLP-1 receptor [1]; [7]): 0.427 nM; IC50 (human GLP-1 receptor [2]; [8]): 56 nM; IC50 (human GLP-1 receptor [2]; [9]): 0.55 nM; half-life [5]: 19 h; half-life [3]: 82 h

**Q.** For `CC[C@H](C)[C@H](NC(=O)[C@H](Cc1ccccc1)NC(=O)[C@H](CCC(=O)O)NC(=O)[C@H](CCCCNC(=O)[C@@H](N)CCCCNC(=O)[C@@H](N)CCCCNC(=O)CC[C@H](NC(=O)CCCCCCCCCCCOc1ccc(C(=O)O)cc1)C(=O)O)NC(=O)[C@H](C)NC(=O)[C@H](C)NC(=O)[C@H](CCC(N)=O)NC(=O)CNC(=O)[C@H](CCC(=O)O)NC(=O)[C@H](CC(C)C)NC(=O)[C@H](Cc1ccc(O)cc1)NC(=O)[C@H](CO)NC(=O)[C@H](CO)NC(=O)[C@@H](NC(=O)[C@H](CC(=O)O)NC(=O)[C@H](CO)NC(=O)[C@@H](NC(=O)[C@H](Cc1ccccc1)NC(=O)[C@@H](NC(=O)CNC(=O)[C@H](CCC(=O)O)NC(=O)C(C)(C)NC(=O)[C@@H](N)Cc1c[nH]cn1)[C@@H](C)O)[C@@H](C)O)C(C)C)C(=O)N[C@@H](C)C(=O)N[C@@H](Cc1c[nH]c2ccccc12)C(=O)N[C@@H](CC(C)C)C(=O)N[C@H](C(=O)N[C@@H](CCC(N)=O)C(=O)NCC(=O)N[C@@H](CCCNC(=N)N)C(=O)N[C@@H](CCCCNC(=O)[C@@H](N)CCCCNC(=O)[C@@H](N)CCCCNC(=O)CC[C@H](NC(=O)CCCCCCCCCCCOc1ccc(C(=O)O)cc1)C(=O)O)C(=O)O)C(C)C` [Example 9, N^ε26-[(2S)-2-amino-6-[[(2S)-2-amino-6-[[(4S)-4-carboxy-4-[12-(4-carboxyphenoxy)dodecanoylamino]butanoyl]amino]hexanoyl]amino]hexanoyl], N^ε37-[(2S)-2-amino-6-[[(2S)-2-amino-6-[[(4S)-4-carboxy-4-[12-(4-carboxyphenoxy)dodecanoylamino]butanoyl]amino]hexanoyl]amino]hexanoyl]-[Aib^8,Gln^34,Lys^37]-GLP-1-(7-37)-peptide], which “EC50/pM (ratio 1% HSA/0% HSA)” value (human GLP-1 receptor [1]) is on record?
**A.** 72

**Q.** And the half-life [5]?
**A.** 20 h

**Q.** What about the half-life [3] of the same molecule?
**A.** 72 h
